This is an account of results in ChEMBL document CHEMBL3400118, “New approaches to the synthesis of sildenafil analogues and their enzyme inhibitory activity” (Bioorg Med Chem, 2015).

In one test the target is Carbonic anhydrase 9 (Homo sapiens, UniProt Q16790). As to the kind of experiment: Inhibition of human carbonic anhydrase 9 preincubated for 15 mins by CO2 hydration assay.
A further test deals with MCF7. The test can be described thus: Cytotoxicity against human MCF7 cells after 72 hrs using Calcein AM by fluorescence assay. The class given is functional, cell-based. Conditions: MCF7, 72 h.
The subject of a further test is K562. The test can be described thus: Cytotoxicity against human K562 cells after 72 hrs using Calcein AM by fluorescence assay. In kind it is functional, cell-based. The note with it: K562, 72 h.
The target in test [1] is Tyrosine-protein kinase ABL1 (Homo sapiens, UniProt P00519). As to the kind of experiment: Inhibition of Abl (unknown origin) using GGEAIYAAPFKK peptide as substrate by [gamma-33P]ATP assay.
Test [2] concerns the target Cyclin-dependent kinase 2/cyclin E1 (Homo sapiens, UniProt P24941). As to the kind of experiment: Inhibition of CDK2/Cyclin E (unknown origin) using histone H1 as substrate by [gamma-33P]ATP assay. The class given is protein-complex assay.
Another test deals with Carbonic anhydrase 2 (Homo sapiens, UniProt P00918). As to the kind of experiment: Inhibition of human carbonic anhydrase 2 preincubated for 15 mins by CO2 hydration assay.
Another test concerns the target Carbonic anhydrase 1 (Homo sapiens, UniProt P00915). The test can be described thus: Inhibition of human carbonic anhydrase 1 preincubated for 15 mins by CO2 hydration assay.
In a further test the target is Carbonic anhydrase 12 (Homo sapiens, UniProt O43570). The test can be described thus: Inhibition of human carbonic anhydrase 12 preincubated for 15 mins by CO2 hydration assay.

SMILES strings stand for the structures.

Carbonic anhydrase 1, sequence (P00915 whole entry): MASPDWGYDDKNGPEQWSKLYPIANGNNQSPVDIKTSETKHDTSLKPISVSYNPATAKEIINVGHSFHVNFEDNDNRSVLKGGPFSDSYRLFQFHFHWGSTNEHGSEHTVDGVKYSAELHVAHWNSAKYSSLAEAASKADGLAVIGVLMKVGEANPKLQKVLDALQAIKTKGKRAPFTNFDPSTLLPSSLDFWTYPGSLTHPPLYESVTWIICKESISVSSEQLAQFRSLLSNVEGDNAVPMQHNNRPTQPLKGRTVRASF
Carbonic anhydrase 12, sequence (O43570 whole entry): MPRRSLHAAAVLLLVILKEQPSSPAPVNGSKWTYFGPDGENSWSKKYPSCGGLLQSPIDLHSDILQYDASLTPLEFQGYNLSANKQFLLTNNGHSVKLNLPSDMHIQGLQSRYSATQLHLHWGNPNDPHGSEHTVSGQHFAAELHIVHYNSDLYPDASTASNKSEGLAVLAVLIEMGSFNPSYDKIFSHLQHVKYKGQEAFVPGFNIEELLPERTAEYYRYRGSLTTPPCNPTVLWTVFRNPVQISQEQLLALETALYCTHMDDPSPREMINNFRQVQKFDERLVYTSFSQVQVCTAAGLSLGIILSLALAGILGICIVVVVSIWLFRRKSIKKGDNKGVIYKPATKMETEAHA
Tyrosine-protein kinase ABL1, sequence (P00519 whole entry): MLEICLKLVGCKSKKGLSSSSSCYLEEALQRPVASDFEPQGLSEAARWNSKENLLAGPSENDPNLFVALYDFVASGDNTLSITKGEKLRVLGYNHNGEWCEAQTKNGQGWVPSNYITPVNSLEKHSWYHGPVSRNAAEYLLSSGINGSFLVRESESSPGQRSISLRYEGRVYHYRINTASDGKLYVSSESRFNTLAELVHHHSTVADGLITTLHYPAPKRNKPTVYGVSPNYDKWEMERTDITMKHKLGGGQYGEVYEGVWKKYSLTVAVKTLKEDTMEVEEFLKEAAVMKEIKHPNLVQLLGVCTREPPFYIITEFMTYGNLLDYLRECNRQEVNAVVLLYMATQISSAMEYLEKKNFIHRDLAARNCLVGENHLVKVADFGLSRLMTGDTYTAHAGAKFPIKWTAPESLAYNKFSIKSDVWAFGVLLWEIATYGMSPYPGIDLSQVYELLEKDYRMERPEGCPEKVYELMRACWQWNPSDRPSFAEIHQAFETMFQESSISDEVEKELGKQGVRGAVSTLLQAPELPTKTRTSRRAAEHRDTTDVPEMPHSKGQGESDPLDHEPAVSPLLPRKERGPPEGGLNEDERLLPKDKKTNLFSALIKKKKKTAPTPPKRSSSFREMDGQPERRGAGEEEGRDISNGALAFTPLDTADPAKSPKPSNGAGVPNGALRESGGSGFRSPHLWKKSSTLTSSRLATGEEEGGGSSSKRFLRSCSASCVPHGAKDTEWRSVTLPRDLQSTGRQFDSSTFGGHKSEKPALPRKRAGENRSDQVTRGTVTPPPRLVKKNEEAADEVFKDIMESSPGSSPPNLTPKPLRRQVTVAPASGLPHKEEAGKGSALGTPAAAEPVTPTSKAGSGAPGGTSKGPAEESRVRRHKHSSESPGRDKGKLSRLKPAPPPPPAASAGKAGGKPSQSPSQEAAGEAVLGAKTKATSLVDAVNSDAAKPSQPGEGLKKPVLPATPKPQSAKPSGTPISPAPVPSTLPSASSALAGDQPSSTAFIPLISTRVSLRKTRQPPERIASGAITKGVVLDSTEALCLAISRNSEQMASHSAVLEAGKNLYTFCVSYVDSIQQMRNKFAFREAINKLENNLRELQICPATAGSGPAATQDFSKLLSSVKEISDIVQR

As for `CCOc1ccc(S(=O)(=O)N2CCN(C)CC2)cc1-c1nnc2c(n1)c(C)nn2C`, the inhibition constant Ki on Carbonic anhydrase 9 is 0.0377 µM; at Carbonic anhydrase 2, more than 10 µM; at Carbonic anhydrase 1, more than 10 µM; at Carbonic anhydrase 12 it was 0.636 µM. For the same molecule, the IC50 with MCF7 was more than 25 µM; in the test with K562 it was more than 25 µM; in test [1], more than 50 µM; in test [2], more than 50 µM.
As for `CCOc1ccc(S(=O)(=O)N2CCNCC2)cc1-c1nnc2c(n1)c(C)nn2C`, the Ki is 0.0401 µM on Carbonic anhydrase 9, more than 10 µM on Carbonic anhydrase 2, more than 10 µM on Carbonic anhydrase 1 and 0.616 µM at Carbonic anhydrase 12. Further, the concentration for half-maximal inhibition (IC50) in the test on MCF7 was more than 25 µM; in the test with K562, more than 25 µM; in test [1], more than 50 µM; in test [2], more than 50 µM.
Turning to `CCOc1ccc(S(=O)(=O)N2CCOCC2)cc1-c1nnc2c(n1)c(C)nn2C`, the Ki on Carbonic anhydrase 9 is 0.0244 µM; on Carbonic anhydrase 2, more than 10 µM; at Carbonic anhydrase 1, more than 10 µM; at Carbonic anhydrase 12 it was 0.0302 µM. The IC50 in the test on MCF7 was more than 25 µM; with K562 it was more than 25 µM; in test [1] it was more than 50 µM; in test [2] it was more than 50 µM.
For the molecule `CCOc1ccc(S(=O)(=O)N2CCCCC2)cc1-c1nnc2c(n1)c(C)nn2C`, the Ki on Carbonic anhydrase 9 was 0.0281 µM; at Carbonic anhydrase 2 it was more than 10 µM; on Carbonic anhydrase 1, more than 10 µM; on Carbonic anhydrase 12, 0.579 µM. Besides, the half-inhibitory concentration (IC50) (in the test with MCF7; in the test with K562; in test [1]; in test [2]) was more than 25 µM in each case.
In the case of `CCOc1ccc(S(=O)(=O)N2CCCC2)cc1-c1nnc2c(n1)c(C)nn2C`, the inhibition constant Ki at Carbonic anhydrase 9 was 0.0403 µM; on Carbonic anhydrase 2 it was more than 10 µM; on Carbonic anhydrase 1, more than 10 µM; at Carbonic anhydrase 12, 0.606 µM. The 50% inhibitory concentration (IC50) in the test with MCF7 is more than 25 µM; in the test on K562 it was more than 25 µM; in test [1] it was more than 50 µM; in test [2], more than 50 µM.
Turning to `CCOc1ccc(S(=O)(=O)N2CCCNCC2)cc1-c1nnc2c(n1)c(C)nn2C`, the Ki on Carbonic anhydrase 9 is 0.0309 µM; on Carbonic anhydrase 2, more than 10 µM; at Carbonic anhydrase 1, more than 10 µM; at Carbonic anhydrase 12, 0.667 µM. For the same molecule, the IC50 in the test with MCF7 is more than 25 µM; with K562, more than 25 µM; in test [1], 5.9 µM; in test [2], 44.3 µM.
With `CCOc1ccc(S(=O)(=O)NCCN)cc1-c1nnc2c(n1)c(C)nn2C`, the inhibition constant (Ki) was 0.0334 µM at Carbonic anhydrase 9, more than 10 µM on Carbonic anhydrase 2, more than 10 µM on Carbonic anhydrase 1 and 0.0573 µM at Carbonic anhydrase 12. Besides, the concentration for half-maximal inhibition (IC50) with MCF7 is more than 25 µM; in the test with K562, more than 25 µM; in test [1], more than 50 µM; in test [2], more than 50 µM.
On to `CCOc1ccc(S(=O)(=O)NCCN2CCOCC2)cc1-c1nnc2c(n1)c(C)nn2C`, for which the Ki on Carbonic anhydrase 9 was 0.0398 µM; on Carbonic anhydrase 2, more than 10 µM; on Carbonic anhydrase 1 it was more than 10 µM; at Carbonic anhydrase 12, 0.0595 µM. Besides, the IC50 was more than 25 µM in the test on MCF7, more than 25 µM with K562, more than 50 µM in test [1] and more than 50 µM in test [2].
In the case of `CCOc1ccc(S(=O)(=O)NCCO)cc1-c1nnc2c(n1)c(C)nn2C`, the Ki on Carbonic anhydrase 9 was 0.0381 µM; at Carbonic anhydrase 2 it was more than 10 µM; at Carbonic anhydrase 1, more than 10 µM; at Carbonic anhydrase 12 it was 0.0073 µM. Also, the IC50 in the test with MCF7 is more than 25 µM; with K562, more than 25 µM; in test [1], more than 50 µM; in test [2] it was more than 50 µM.
`CCCc1nn(C)c2nnc(-c3cc(S(=O)(=O)N4CCN(C)CC4)ccc3OCC)nc12`: the Ki on Carbonic anhydrase 9 is 0.0154 µM; on Carbonic anhydrase 2, more than 10 µM; on Carbonic anhydrase 1 it was more than 10 µM; at Carbonic anhydrase 12, 0.629 µM. Moreover, the IC50 in the test on MCF7 is more than 25 µM; in the test with K562 it was more than 25 µM; in test [1], more than 50 µM; in test [2], more than 25 µM.
On to `CCOc1ccc(S(=O)(=O)N(CC)CC)cc1-c1nnc2c(n1)c(C)nn2C`, for which the Ki on Carbonic anhydrase 9 was 0.0424 µM; on Carbonic anhydrase 2 it was more than 10 µM; on Carbonic anhydrase 1, more than 10 µM; at Carbonic anhydrase 12, 0.281 µM. Moreover, the IC50 in the test with MCF7 is more than 25 µM; in the test with K562, more than 25 µM; in test [1], more than 50 µM; in test [2], more than 50 µM.
Turning to `CCCc1nn(C)c2nnc(-c3cc(S(=O)(=O)N4CCNCC4)ccc3OCC)nc12`, the Ki on Carbonic anhydrase 9 was 0.0387 µM; at Carbonic anhydrase 2 it was more than 10 µM; at Carbonic anhydrase 1, more than 10 µM; at Carbonic anhydrase 12, 0.0038 µM.
Consider `CCOc1ccc(S(=O)(=O)NC(C)(CO)CO)cc1-c1nnc2c(n1)c(C)nn2C`, for which the inhibition constant (Ki) at Carbonic anhydrase 9 was 0.0326 µM; on Carbonic anhydrase 2 it was more than 10 µM; at Carbonic anhydrase 1 it was more than 10 µM; on Carbonic anhydrase 12, 0.0409 µM. Moreover, the IC50 (in the test on MCF7; in the test on K562; in test [1]; in test [2]) was more than 100 µM in each case.
As for `CCOc1ccc(S(=O)(=O)NC(C)(C)CO)cc1-c1nnc2c(n1)c(C)nn2C`, the Ki was 0.0313 µM at Carbonic anhydrase 9, more than 10 µM on Carbonic anhydrase 2, more than 10 µM on Carbonic anhydrase 1 and 0.608 µM at Carbonic anhydrase 12. Moreover, the concentration for half-maximal inhibition (IC50) (with MCF7; in the test with K562; in test [1]; in test [2]) was more than 100 µM in each case.
Consider `CCOc1ccc(S(N)(=O)=O)cc1-c1nnc2c(n1)c(C)nn2C`, for which the inhibitory constant (Ki) on Carbonic anhydrase 9 turned out to be 0.0316 µM; at Carbonic anhydrase 2 it was 0.422 µM; at Carbonic anhydrase 1, 6.83 µM; on Carbonic anhydrase 12, 0.0055 µM.
On to `Cc1ccc(NC(=O)c2ccc(CN3CCN(C)CC3)cc2)cc1Nc1nccc(-c2cccnc2)n1` [IMATINIB], for which the IC50 in the test on MCF7 was more than 10 µM.
